Among the test systems are EKVX NSCLC; HCT-116 colon; HL-60(TB) leukemia; SNB-19 CNS; DU-145 prostate; A549 NSCLC; SR leukemia; MDA-MB-231 breast; SK-OV-3 ovarian; UO-31 renal.
Holding throughout (assay): DTP human tumour cell line panel, 48 h

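Exposure lasted 48 hours, with cells grown in 96-well plates and compounds tested at five concentrations. TGI denotes the concentration required for complete inhibition of growth.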

In the case of `CC(C)(C)c1ccc(OCCOc2ccc(C(C)(C)C)cc2NC=O)c(NC=O)c1`, the TGI – broadly, the concentration giving total growth inhibition – is 98 µM in the assay on EKVX NSCLC; 33.5 µM in the assay on HCT-116 colon; > 100 µM with HL-60(TB) leukemia; > 100 µM with SNB-19 CNS; > 87.9 µM in the assay with DU-145 prostate; > 100 µM with A549 NSCLC. Moreover, the total growth inhibition concentration (TGI) with SR leukemia is > 48 µM; in the assay on MDA-MB-231 breast, 40.5 µM; with SK-OV-3 ovarian, > 100 µM; with UO-31 renal it was 30.9 µM.
In the case of `Clc1cccc(C=NC23CC4CC(CC(C4)C2)C3)c1Cl`, the TGI in the assay on EKVX NSCLC, with HCT-116 colon, with HL-60(TB) leukemia, in the assay with SNB-19 CNS, in the assay with DU-145 prostate and in the assay on A549 NSCLC was > 10 µM each time. For the same molecule, the TGI was 2.63 µM with SR leukemia, > 10 µM in the assay on MDA-MB-231 breast and > 10 µM with SK-OV-3 ovarian.
For the molecule `COC(=O)c1cc(NC(=O)Cn2c3ccccc3c3ccccc32)cn1C`, the TGI in the assay with EKVX NSCLC, in the assay on HCT-116 colon, in the assay with HL-60(TB) leukemia, with SNB-19 CNS, in the assay with DU-145 prostate and with A549 NSCLC was > 100 µM throughout. Also, the TGI was > 100 µM in the assay on SR leukemia, 48.8 µM in the assay on MDA-MB-231 breast, 89.2 µM in the assay with SK-OV-3 ovarian and > 100 µM in the assay on UO-31 renal.
In the case of `O=[N+]([O-])c1cc(-c2ccc([As](=O)(O)O)cc2)ccc1[As](=O)(O)O`, the concentration for total growth inhibition (TGI) in the assay on EKVX NSCLC, in the assay with HCT-116 colon, in the assay on HL-60(TB) leukemia, in the assay with SNB-19 CNS, in the assay on DU-145 prostate and with A549 NSCLC was > 100 µM in each case. The TGI with SR leukemia, with MDA-MB-231 breast and in the assay with UO-31 renal was > 100 µM in each case.
For the molecule `COC(=O)[C@@]1(Cc2ccc(OC(C)=O)cc2)Cc2cc3ccccc3n2N1`, the TGI in the assay on EKVX NSCLC was > 100 µM; in the assay on HCT-116 colon, > 100 µM; in the assay on HL-60(TB) leukemia it was 80.8 µM; in the assay with SNB-19 CNS it was > 100 µM; in the assay with DU-145 prostate, > 100 µM; with A549 NSCLC, > 100 µM. The TGI in the assay on SR leukemia is 70.6 µM; in the assay on MDA-MB-231 breast, > 100 µM; in the assay with SK-OV-3 ovarian it was > 100 µM; in the assay on UO-31 renal, > 100 µM.
In the case of `COc1ccc2nc3c(nc2c1)C(C)(C)C=C3c1ccc(Br)cc1`, the TGI in the assay with EKVX NSCLC, in the assay with HCT-116 colon, in the assay on HL-60(TB) leukemia, in the assay on SNB-19 CNS, in the assay with DU-145 prostate and with A549 NSCLC was > 100 µM each time. Further, the TGI with SR leukemia and in the assay on MDA-MB-231 breast was > 100 µM in each case.
As to `CC(=O)O[C@H]1C(=O)[C@@]2(C)C(C(OC(=O)c3ccccc3)[C@]3(O)CC(OC(=O)C(O)C(NC(=O)c4cccc(Cl)c4)c4ccccc4)C(C)=C1C3(C)C)[C@]1(OC(C)=O)CO[C@@H]1C[C@@H]2O` (stereo not given in full), the TGI with EKVX NSCLC is > 10 µM; in the assay on HCT-116 colon it was 5.12 µM; in the assay with HL-60(TB) leukemia, 0.419 µM; in the assay on SNB-19 CNS, > 10 µM; with DU-145 prostate it was 5.58 µM; with A549 NSCLC, > 10 µM. In addition, the TGI is 5.15 µM in the assay with SR leukemia, 8.72 µM with MDA-MB-231 breast and > 10 µM in the assay with SK-OV-3 ovarian.
Consider `COc1cc2ccnc3c2c(c1OC)N(C)C=C3`, for which the TGI in the assay on EKVX NSCLC was 61.6 µM; in the assay with HCT-116 colon, 37.9 µM; with SNB-19 CNS, 75.9 µM; in the assay on DU-145 prostate, > 100 µM; in the assay with A549 NSCLC, 41 µM; in the assay on SR leukemia, 64.9 µM. The TGI with MDA-MB-231 breast was found to be 80.6 µM; in the assay with SK-OV-3 ovarian, 79.3 µM; with UO-31 renal, 33.1 µM.
As for `C=c1c2ccccc2oc2nc3[nH]c(N)c(C#N)c(N)c3c(=N)c12`, the TGI in the assay on EKVX NSCLC is 73 µM; in the assay on HCT-116 colon it was > 100 µM; with HL-60(TB) leukemia, 90.3 µM; in the assay on SNB-19 CNS, > 100 µM; in the assay with DU-145 prostate, > 100 µM; in the assay on A549 NSCLC it was > 100 µM. For the same molecule, the TGI in the assay with MDA-MB-231 breast, with SK-OV-3 ovarian and in the assay with UO-31 renal was > 100 µM in each case.
For `CSCCC(NOC(=O)Cc1ccccc1)P(=O)(O)c1ccccc1` (stereo not given), the TGI in the assay with HCT-116 colon, in the assay with HL-60(TB) leukemia, with SNB-19 CNS, with DU-145 prostate, in the assay with A549 NSCLC and in the assay with SR leukemia was > 100 µM in each case. Also, the TGI in the assay with MDA-MB-231 breast, in the assay on SK-OV-3 ovarian and in the assay on UO-31 renal was > 100 µM throughout.
Turning to `O=C(NC1CCCCC1)N1CCNC1=S`, the TGI in the assay on EKVX NSCLC, in the assay on HCT-116 colon, in the assay with HL-60(TB) leukemia, with DU-145 prostate, with A549 NSCLC and in the assay with SR leukemia was > 100 µM each time. For the same molecule, the results for the TGI in the assay on MDA-MB-231 breast, in the assay with SK-OV-3 ovarian and in the assay with UO-31 renal were 8.05 µM, > 100 µM and > 100 µM, respectively.
Turning to `Clc1ccc(CCNCCNC2(c3cc4ccccc4s3)CCCCC2)cc1Cl`, the TGI amounted to 3.99 µM in the assay with EKVX NSCLC; 3.26 µM in the assay with HCT-116 colon; 3.83 µM in the assay on SNB-19 CNS; 3.88 µM in the assay with DU-145 prostate; 3.81 µM in the assay on A549 NSCLC; 4.19 µM with SR leukemia. Also, the values for the TGI in the assay on MDA-MB-231 breast, with SK-OV-3 ovarian and with UO-31 renal were 3.24 µM, 2.81 µM and 3.46 µM, respectively.
For the molecule `O=C(N/N=C/c1ccc(O)cc1)NNCCO`, the TGI in the assay with HCT-116 colon, in the assay on HL-60(TB) leukemia, in the assay on SNB-19 CNS, with DU-145 prostate, in the assay on A549 NSCLC and with SR leukemia was > 100 µM each time. The TGI with MDA-MB-231 breast, in the assay with SK-OV-3 ovarian and with UO-31 renal was > 100 µM each time.
`COc1c(C(=O)CC2c3c(cc4oc(C)cc(=O)c4c3OC)OC(=N)C2c2nc3ccccc3[nH]2)c(O)c(OC)c2occc12` (stereo not given): the TGI in the assay with EKVX NSCLC, in the assay on HCT-116 colon, with HL-60(TB) leukemia, in the assay with SNB-19 CNS, with DU-145 prostate and with A549 NSCLC was > 100 µM throughout. In addition, the TGI with MDA-MB-231 breast, with SK-OV-3 ovarian and with UO-31 renal was > 100 µM in each case.
Turning to `Cc1cc2nc3c(C)c4ccccc4c(C)n3c2cc1C`, the TGI with EKVX NSCLC is > 10 µM; with HCT-116 colon, 3.96 µM; in the assay on HL-60(TB) leukemia it was 6.33 µM; with SNB-19 CNS, > 10 µM; in the assay on DU-145 prostate, > 10 µM; with A549 NSCLC, > 10 µM. In addition, the TGI in the assay with SR leukemia was 9.01 µM; in the assay on MDA-MB-231 breast it was 7.51 µM; in the assay on SK-OV-3 ovarian it was > 10 µM.
On to `O=C(O)Cn1cnc2c(=O)[nH]c(Nc3ccccc3)nc21`, for which the TGI in the assay on EKVX NSCLC, in the assay on HCT-116 colon, in the assay on SNB-19 CNS, in the assay on DU-145 prostate, in the assay with A549 NSCLC and in the assay with SR leukemia was > 100 µM each time. Besides, the concentration for total growth inhibition (TGI) in the assay with MDA-MB-231 breast and with SK-OV-3 ovarian was > 100 µM each time.
In the case of `O=C(O)C(=Cc1ccc(-c2ccc([N+](=O)[O-])cc2)o1)C(=O)O`, the TGI in the assay with EKVX NSCLC, in the assay with HCT-116 colon, in the assay on SNB-19 CNS, in the assay with DU-145 prostate, with A549 NSCLC and in the assay on SR leukemia was > 100 µM in each case. Further, the TGI in the assay with MDA-MB-231 breast, in the assay on SK-OV-3 ovarian and in the assay with UO-31 renal was > 100 µM each time.
On to `OC[C@@H](O)[C@H](O)[C@H](O)[C@@H](O)C1SCCCS1`, for which the TGI in the assay on EKVX NSCLC, in the assay with HCT-116 colon, in the assay on SNB-19 CNS, in the assay with DU-145 prostate, in the assay with A549 NSCLC and in the assay with SR leukemia was > 100 µM each time. Moreover, the TGI in the assay with MDA-MB-231 breast, in the assay on SK-OV-3 ovarian and with UO-31 renal was > 100 µM throughout.
For `CCN1CCC(O)(/C=C/c2ccc(Cl)c(Cl)c2)C(C(=O)/C=C/c2ccc(Cl)c(Cl)c2)C1` (stereo not given), the TGI with EKVX NSCLC worked out at 1.89 µM; in the assay with HCT-116 colon it was 1.73 µM; with HL-60(TB) leukemia it was 0.905 µM; in the assay on SNB-19 CNS it was 3.71 µM; in the assay with DU-145 prostate, 3.24 µM; in the assay on A549 NSCLC, 1.72 µM. Moreover, the TGI is 1.6 µM in the assay on MDA-MB-231 breast, 4.61 µM with SK-OV-3 ovarian and 2.3 µM in the assay with UO-31 renal.
For the molecule `COC(=O)C1=C(C(=O)OC)SC2(S1)C(C(=O)OC)=C(C(=O)OC)Sc1c2ssc1=O`, the TGI in the assay with EKVX NSCLC came out at 6.16 µM; in the assay on HCT-116 colon, 1.78 µM; in the assay on HL-60(TB) leukemia it was 0.0492 µM; in the assay on SNB-19 CNS, 34.2 µM; with DU-145 prostate, 2.33 µM; in the assay on A549 NSCLC, 31 µM. Also, the TGI in the assay on MDA-MB-231 breast was found to be 3.55 µM; with SK-OV-3 ovarian it was 24.8 µM; in the assay on UO-31 renal it was 3.15 µM.
Regarding `COc1ccc(C2=Nn3c(nc4sc5c(c4c3=O)CCCC5)SC2)cc1`, the total growth inhibition concentration (TGI) with EKVX NSCLC, in the assay with HCT-116 colon, with HL-60(TB) leukemia, in the assay on DU-145 prostate, in the assay on A549 NSCLC and in the assay on SR leukemia was > 100 µM each time. Moreover, the TGI in the assay on MDA-MB-231 breast, in the assay on SK-OV-3 ovarian and with UO-31 renal was > 100 µM each time.

Values taken from PubChem BioAssay (NCI).
